One series relates to E. coli ATCC 25922. Description: MIC by broth microdilution, E. coli. The format is cell-based, Escherichia coli. Conditions: Escherichia coli, ATCC25922; compound alone, MHB, 24 h at 37 °C; read-out: MIC (μg/mL) E.coli ATCC 25922. In a few lines:
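CLSI-based broth microdilution in MHB, inoculum 5 × 10^5 CFU/mL from log-phase cultures, compounds tested at 256–0.5 µg/mL final, 24 h at 37 °C static aerobic. MIC read by unaided eye with mirror plus OD620 for growth inhibition; mean ± SD of three experiments in triplicate.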

In a further series the target is T1, StOASS-A (Salmonella typhimurium, UniProt P0A1E3).
T1 construct: His-tag (with TEV site) (cleaved yes); made in house; host or cells: E. coli Rosetta (DE3)
Description: Fluorescence binding assay on purified recombinant StOASS-A. Particulars: 20 °C, 100 mM HEPES, 5% DMSO, pH 7.0, racemic mixture, esters tested up to 100 μM. More on the design: species or system S. Typhimurium. The procedure:
(§1) The affinity of the compounds for StOASS-A and StOASS-B was determined on the purified recombinant proteins by an in vitro fluorescence binding assay. Measurements were carried out at 20 °C in a 3 mm pathlength quartz microcuvette in 100 mM HEPES, 5% DMSO (Applichem, Darmstadt, Germany), pH 7.0, using a Fluoromax-4 (Horiba Jobin-Yvon, Kyoto, Japan) spectrofluorometer. Emission spectra of solutions containing 0.2–1.0 μM StOASS, upon excitation of the pyridoxal 5′-phosphate cofactor at 412 nm, in the presence of increasing concentrations of compounds were collected; fluorescence intensities at 500 nm were plotted to compound concentration and data were fitted to a binding isotherm: I=I0+ΔI·compound/KD+compound where I is the fluorescence emission intensity at 500 nm in the presence of a given concentration of compound, I0 is the initial fluorescence emission in the absence of ligands, ΔI is the amplitude of the fluorescence emission change and KD is the dissociation constant. When the KD was lower than the protein concentration, data were fitted to the quadratic equation: I=I0+ΔI·OASS+compound+KD−OASS+compound+KD^2−4·OASS·compound/2
(§2) Data were collected in duplicate.
(§3) Esters were tested up to a concentration of 100 μM and no binding was observed.

Another series relates to K. pneumoniae ATCC13883. Description: MIC by broth microdilution, K. pneumoniae. Type of series: cell-based, Klebsiella pneumoniae. Conditions: Klebsiella pneumoniae, ATCC13883; compound alone, MHB, 24 h at 37 °C; read-out: MIC (μg/mL) K. pneumoniae ATCC13883.
A further series has as its target T2, StOASS-B (Salmonella typhimurium, UniProt P29848).
T2 construct: His-tag (with TEV site) (cleaved yes); made in house; host or cells: E. coli Rosetta (DE3)
T2 sequence (P29848 1-303): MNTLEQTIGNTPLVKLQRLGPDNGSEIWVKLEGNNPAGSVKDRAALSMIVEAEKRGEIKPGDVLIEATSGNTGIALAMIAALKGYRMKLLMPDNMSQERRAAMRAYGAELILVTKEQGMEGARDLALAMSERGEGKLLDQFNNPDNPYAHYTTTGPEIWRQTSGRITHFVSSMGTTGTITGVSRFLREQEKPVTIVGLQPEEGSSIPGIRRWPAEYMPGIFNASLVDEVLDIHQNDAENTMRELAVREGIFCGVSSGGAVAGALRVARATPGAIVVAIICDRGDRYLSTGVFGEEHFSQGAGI
The series is described as follows: Fluorescence binding assay on purified recombinant StOASS-B. The procedure: as §1, §2, §3

The next series deals with MDBK cells. Description: Cytotoxicity assay (MTT) on MDBK cells. Type of series: cell-based, bovine. Conditions: 32, 16, 8 µg/mL; MTT test. On the procedure:
The cytotoxicity assay was performed using the 3-(4,5-dimethylthiazol-2-yl)-2,5-diphenyltetrazolium bromide (MTT) test, following the procedure used by Donofrio et al.. MDBK cells were cultured on microtiter tissue culture plates in DMEM medium for 24 h at 37 °C in the presence of 5% CO2. After incubation, when the cell monolayer was at confluence, an aliquot of 1 µL of UPAR415 in DMSO at different concentrations was added in each well, containing a volume of 100 µL of DMEM medium and MDBK cells, and then the plates were reincubated at the same conditions. After incubation, 10 µL of MTT at 200 mg/mL (3-(4,5-dimethylthiazol-2-yl)-2,5-diphenyltetrazolium bromide) was added to each well and incubated at 37 °C for 6 h. At the end of the incubation, 100 µL of the solubilization solution (10% SDS in 0.01 M HCl) was added to each well and then incubated overnight. The MTT compound, a yellow tetrazolium salt, is reduced by mitochondrial enzymes (succinate dehydrogenase) of metabolically active eukaryotic cells to insoluble formazan crystals. In the presence of metabolically active cells, after the addition of a detergent solution (10% SDS in […]) that allows the formazan to be released from the cells, a violet color is seen in the medium. Instead, in the presence of non-viable cells, MTT is not reduced to formazan and therefore the solution will remain yellow.
After incubation, plates were read with a spectrophotometer at 620 nm. Positive controls (PC)—without any compounds—and PCs with 1% DMSO were performed for each plate and three replicates for two independent experiments were performed for each assay.

T1 sequence (P0A1E3 whole entry): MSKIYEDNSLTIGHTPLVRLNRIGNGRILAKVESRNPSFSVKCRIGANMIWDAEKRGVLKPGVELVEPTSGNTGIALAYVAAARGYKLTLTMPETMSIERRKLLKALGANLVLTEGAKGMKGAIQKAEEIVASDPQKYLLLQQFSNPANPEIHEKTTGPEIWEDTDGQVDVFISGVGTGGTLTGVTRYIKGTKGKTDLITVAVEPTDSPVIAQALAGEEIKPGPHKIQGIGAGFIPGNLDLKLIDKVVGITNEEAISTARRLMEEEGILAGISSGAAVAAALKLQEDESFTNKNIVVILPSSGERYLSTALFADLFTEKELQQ

On to `CCOC(=O)C1(Cc2ccc(C)cc2)CC1c1cccc(N2CC(C)OC(C)C2)c1` (stereo not drawn) [Compound 12h, trans-ethyl 2-(3-(2,6-dimethylmorpholino)phenyl)-1-(4-methylbenzyl)cyclopropanecarboxylate], for which the MIC with E. coli ATCC 25922 and in the series with K. pneumoniae ATCC13883 was more than 512 µg/mL throughout. Moreover, the “KD (μM) OASS-A” value on StOASS-A is “No binding”. Also, the “KD (μM) OASS-B” value on StOASS-B (20 °C, 100 mM HEPES, 5% DMSO, pH 7.0, racemic mixture, esters tested up to 100 μM) is reported as “No binding”. Besides, the “Toxicity on viability of MDBK cells” value with MDBK cells is recorded as “lowest toxicity profile”.

As to `Cc1ccc(CC2(C(=O)O)CC2c2cccc(N3CC(C)OC(C)C3)c2)cc1` (stereo not drawn) [Compound 13h, trans-2-(3-(2,6-dimethylmorpholino)phenyl)-1-(4-methylbenzyl)cyclopropanecarboxylic acid], the MIC with E. coli ATCC 25922 and with K. pneumoniae ATCC13883 was more than 512 µg/mL each time. The “KD (μM) OASS-A” value on StOASS-A is given as “most potent in vitro activity among the derivatives substituted with heteroaliphatic groups”. Further, the Kd worked out at 0.066 ± 0.005 µM on StOASS-A (read-out: KD (μM) OASS-A) and 3370 ± 720 nM on StOASS-B. Besides, the “Toxicity on viability of MDBK cells” value in the series with MDBK cells is “lowest toxicity profile”.
